In patent EP1049466B1, “CARBONIC ANHYDRASE INHIBITOR FOR INCREASING OXYGEN TENSION IN THE OPTIC NERVE AND RETINA” (Stefansson, Einar, priority 1998, dated 1999):

Tests used:
[1] = intravenous; cited from earlier work
[2] = intravenous administration; cited from earlier work
[3] = Continuous arterial blood pressure recording in the experimental pigs; type: in vivo, Danish agricultural pigs (landrace); details: after intravenous injection of 500 mg (Figure 7)
Protocol: Danish agricultural pigs (landrace), 25-33 kg in weight and brought up in specific pathogen free environment, were used. Their treatment was supervised by a veterinarian and followed the decrees of the ARVO Statement for the use of animals in ophthalmic and vision research. All experiments were conducted during daytime. The pigs were anaesthetised with midazolam (dormicum®) and ketamine followed by intravenous application of 250 mg mebumal, fentanylum (Haldid®, Jansen Cilag), 0.5 mg an hour, pancuron bromide (Pavulon®, Organon Technica, Sweden) 16 mg an hour, mebumal (Hospital Pharmacies, Denmark) 50 mg per ml as needed and atropine as needed. The right pupil was dilated with 1% tropicamide eye drops (Mydriacyl® and 2.5% phenylephrine eye drops. A arterial line was placed in a femoral artery for continuous measurement of blood pressure and intermittent blood gas analysis. A venous line was placed in a femoral vein for continuous infusion of the anaesthetics and saline as needed. A rectal thermoprobe provided continuous reading of body temperature.
Arterial blood samples were obtained at regular intervals and arterial PO2, pH and PCO2 were measured with a ABL 605 blood gas analyser (Radiometer, Denmark) (table 1). Arterial blood pressure, electrocardiogram and rectal temperature were monitored continuously and it was verified that these values were within normal limits. […]

[4] = oral; blue field entopic technique; cited from earlier work
[5] = cited from earlier work
optic nerve = test: Oxygen tension of optic nerve (ONPO2), polarographic electrode in the vitreous humour 0.5 mm over the optic disc of anaesthetised pigs; type: in vivo, Danish agricultural pigs (landrace)
Protocol: The pig was secured laterally on an operating table and a speculum was placed between the right eyelids. A conjunctival peritomy was performed and 3-0 silk sutures placed under the rectus muscle tendons to immobilise the eye. A sclerotomy was made 2.5 mm behind the limbus in the superonasal quadrant and a cannula placed, through which the polarographic electrode was advanced into the vitreous cavity. The electrode was held in a micromanipulator (Stoelting Inc. USA) and placed in the vitreous humour approximately 0.5 mm over the optic disc in an area not covered by the large vessels. The entire operation was performed using a Zeiss operating microscope and the electrode was placed using an indirect ophthalmoscope or the microscope and a flat corneal contact lens.
A silver-silver chloride reference electrode was placed in the conjunctival sac of the same (right) eye and kept moist with saline. The polarographic oxygen meter consists of a 100 micrometer platinum-iridium electrode inside a 20 gauge needle (Model 761), a silver-silver chloride reference electrode and a chemical microsensor (Model 1251, Diamond Electrotech Inc., Ann Arbor Mich., USA). The recording system was calibrated before and after each experiment in a calibration cell (Diamond Electrotech. Inc.) at 37 degrees Celsius in 0.9% saline using 100% N2, 5.0%02-95%N2 and 20.000%02-80%N2 (provided by AGA Inc. Denmark). The barometric pressure was monitored, and the oxygen tension recordings were adjusted for barometric pressure, and expressed as mmHg.
The experiments were all run with typical indoor illumination (white fluorescent light tubes (Philips TLM 4OW/29RS)). The ambient light intensity at the level of the pig's eye was measured with a Mavolux digital light meter (Gossen GmbH, Germany) and found to be 497 lux or 6 watt per square meter.
Each experiment was begun with the animal breathing 100% oxygen. Once a stable ONPO2 level was obtained the breathing mixture was changed to air, containing 21% oxygen, and a stable level obtained again. In some experiments the breathing mixture was changed to 20.000% O2 followed by 5.19% CO2, 19.9% O2 (N2 to balance), followed by 20.000% O2.
Polarographic oxygen electrodes were placed in the vitreous humour 0.5 mm above the optic disc in anaesthetized pigs. Arterial blood pressure and gasses were monitored and ONPO was recorded continously with various breathing gasses.

Molecule | retinal blood flow [1] | cerebral blood flow [2] | arterial blood pressure [3] | macular blood flow [4] | flow velocity in the intracranial arteries ([5]; in vivo) | flow velocity in the ophthalmic artery ([5]; in vivo) | ocular pulsatile blood flow ([5]; mainly originating from the choroidal circulation) | ONPO2 after injection (optic nerve; after 500 mg intravenous injection, anaesthetised pigs, mean ± SD) [mmHg] | ONPO2 before injection (optic nerve; baseline before 500 mg intravenous injection, anaesthetised pigs, mean ± SD) [mmHg] | dose dependence of the effect on ONPO2 (optic nerve; intravenous, dorzolamide effect seen with 6 to 500 mg (Figures 4 and 8)) | raised the optic nerve oxygen tension by (optic nerve; summary over the doses given, anaesthetised pigs, n=4 each, p=0.046 (dorzolamide), p=0.005 (acetazolamide)) | ONPO2 in response to breathing 5.19% CO2 (optic nerve; breathing 5.19% CO2 and 19.9% O2 (N2 to balance), n=4, p<0.001) [mmHg] | ONPO2 before breathing 5.19% CO2 (optic nerve; breathing 20% O2, n=4) [mmHg]
CC(=O)Nc1nnc(S(N)(=O)=O)s1 [acetazolamide] | increased | increased | transient lowering | no effect | increased | decrease | decrease | 30.9± 10.0 | 23.6± 9.5 | dose dependent | 15-35% |  | 
CO2 |  |  |  |  |  |  |  |  |  |  |  | 28.9 ± 3.6 | 20.8 ± 5.6
